Reference: ChEMBL document CHEMBL1133206, “Antifungal rapamycin analogues with reduced immunosuppressive activity” (Bioorg Med Chem Lett, 2000)
Values after ≈ are worked out from the molar mass of the structure shown.

What was measured:
Pichia kudriavzevii = test: In vitro antifungal activity against Candida krusei (CK 28838); assay type: functional
Candida albicans [1] = test: In vitro antifungal activity against Candida albicans (CA 10231); assay type: functional
Candida albicans [2] = test: In vitro antifungal activity against Candida albicans (CA 442); Weak; assay type: functional, organism-based
Homo sapiens = organism: Homo sapiens; test: Inhibitory activity against human concanavalin-A proliferation assay; assay type: functional
Candida albicans [3] = test: In vitro for antifungal activity against Candida albicans (CA 579a); assay type: functional
Aspergillus niger = test: In vitro antifungal activity at a minimum inhibitory concentration (~100 ug/mL) against Aspergillus niger; Not affected; assay type: functional; settings: Aspergillus niger; read-out: MIC
Candida albicans [4] = test: In vitro antifungal activity against Candida albicans (CA 62376); Weak; assay type: functional, organism-based
Candida albicans [5] = test: In vitro antifungal activity against […] (CA 34140); Not affected.; assay type: functional
Candida tropicalis = test: In vitro antifungal activity against Candida tropicalis (CT 750); assay type: functional
Nakaseomyces glabratus = test: In vitro antifungal activity against Torulopsis glabrata (TG 15545); assay type: functional
Candida albicans [6] = test: In vitro antifungal activity against Candida albicans (CA 38247); Weak; assay type: functional, organism-based

Compound	MIC (Pichia kudriavzevii) [µg/mL]	MIC (Candida albicans [1]) [µg/mL]	MIC (Candida albicans [2])	MIC (Candida albicans [3]) [µg/mL]	MIC (Aspergillus niger) [µg/mL]	MIC (Candida albicans [4])	MIC (Candida albicans [5]) [µg/mL]	MIC (Candida tropicalis) [µg/mL]	MIC (Nakaseomyces glabratus) [µg/mL]	MIC (Candida albicans [6])	IC50 (Homo sapiens) [nM]
CO[C@@H]1C[C@H](C[C@@H](C)[C@@H]2CC(=O)[C@H](C)/C=C(\C)[C@@H](O)[C@@H](OC)C(=O)[C@H](C)C[C@H](C)/C=C/C=C/C=C(\C)[C@H](N(OC)C(=O)N(C)C)C[C@@H]3CC[C@@H](C)[C@@](O)(O3)C(=O)C(=O)N3CCCC[C@H]3C(=O)O2)CC[C@H]1O	1.56 (≈ 1.56 µM)	50 (≈ 50 µM)	Weak	50 (≈ 50 µM)	~100 (≈ 100 µM)	Weak	~100 (≈ 100 µM)	50 (≈ 50 µM)	1.56 (≈ 1.56 µM)	Weak	6.5
CO[C@@H]1C[C@H](C[C@@H](C)[C@@H]2CC(=O)[C@H](C)/C=C(\C)[C@@H](O)[C@@H](OC)C(=O)[C@H](C)C[C@H](C)/C=C/C=C/C=C(\C)[C@@H](N(OC)C(=O)N(C)C)C[C@@H]3CC[C@@H](C)[C@@](O)(O3)C(=O)C(=O)N3CCCC[C@H]3C(=O)O2)CC[C@H]1O	3.12 (≈ 3.12 µM)	> 100	Weak	> 100	~100 (≈ 100 µM)	Weak	~100 (≈ 100 µM)	50 (≈ 50 µM)	3.12 (≈ 3.12 µM)	Weak	3610
COC(=O)N(O)[C@H]1C[C@@H]2CC[C@@H](C)[C@@](O)(O2)C(=O)C(=O)N2CCCC[C@H]2C(=O)O[C@H]([C@H](C)C[C@@H]2CC[C@@H](O)[C@H](OC)C2)CC(=O)[C@H](C)/C=C(\C)[C@@H](O)[C@@H](OC)C(=O)[C@H](C)C[C@H](C)/C=C/C=C/C=C/1C	1.56 (≈ 1.6 µM)	25 (≈ 25.7 µM)	Weak	50 (≈ 51.4 µM)	~100 (≈ 103 µM)	Weak	~100 (≈ 103 µM)	25 (≈ 25.7 µM)	1.56 (≈ 1.6 µM)	Weak	1.47
CO[C@@H]1C[C@H](C[C@@H](C)[C@@H]2CC(=O)[C@H](C)/C=C(\C)[C@@H](O)[C@@H](OC)C(=O)[C@H](C)C[C@H](C)/C=C/C=C/C=C(\C)[C@H](N(O)C(=O)N(C)C)C[C@@H]3CC[C@@H](C)[C@@](O)(O3)C(=O)C(=O)N3CCCC[C@H]3C(=O)O2)CC[C@H]1O		100 (≈ 101 µM)	Weak	100 (≈ 101 µM)	~100 (≈ 101 µM)	Weak	~100 (≈ 101 µM)	50 (≈ 50.7 µM)	3.12 (≈ 3.16 µM)	Weak	2030
CCCOC(=O)N(O)[C@H]1C[C@@H]2CC[C@@H](C)[C@@](O)(O2)C(=O)C(=O)N2CCCC[C@H]2C(=O)O[C@H]([C@H](C)C[C@@H]2CC[C@@H](O)[C@H](OC)C2)CC(=O)[C@H](C)/C=C(\C)[C@@H](O)[C@@H](OC)C(=O)[C@H](C)C[C@H](C)/C=C/C=C/C=C/1C	0.78 (≈ 0.779 µM)	12.5 (≈ 12.5 µM)	Weak	12.5 (≈ 12.5 µM)	~100 (≈ 99.9 µM)	Weak	~100 (≈ 99.9 µM)	6.25 (≈ 6.24 µM)	1.56 (≈ 1.56 µM)	Weak	900
CO[C@H]1C[C@@H]2CC[C@@H](C)[C@@](O)(O2)C(=O)C(=O)N2CCCC[C@H]2C(=O)O[C@H]([C@H](C)C[C@@H]2CC[C@@H](OC(=O)N(C)O)[C@H](OC)C2)CC(=O)[C@H](C)/C=C(\C)[C@@H](O)[C@@H](OC)C(=O)[C@H](C)C[C@H](C)CCCC/C=C/1C	1.56 (≈ 1.57 µM)	3.12 (≈ 3.15 µM)		3.12 (≈ 3.15 µM)				3.12 (≈ 3.15 µM)			434

The next lines start with results.

MIC (Pichia kudriavzevii) [µg/mL]	MIC (Candida albicans [1]) [µg/mL]	MIC (Candida albicans [2])	MIC (Candida albicans [3]) [µg/mL]	MIC (Aspergillus niger) [µg/mL]	MIC (Candida albicans [4])	MIC (Candida albicans [5]) [µg/mL]	MIC (Candida tropicalis) [µg/mL]	MIC (Nakaseomyces glabratus) [µg/mL]	MIC (Candida albicans [6])	Compound	IC50 (Homo sapiens) [nM]
1.56 (≈ 1.54 µM)	12.5 (≈ 12.3 µM)	Weak	12.5 (≈ 12.3 µM)	~100 (≈ 98.5 µM)	Weak	~100 (≈ 98.5 µM)	12.5 (≈ 12.3 µM)	1.56 (≈ 1.54 µM)	Weak	CCCCOC(=O)N(O)[C@H]1C[C@@H]2CC[C@@H](C)[C@@](O)(O2)C(=O)C(=O)N2CCCC[C@H]2C(=O)O[C@H]([C@H](C)C[C@@H]2CC[C@@H](O)[C@H](OC)C2)CC(=O)[C@H](C)/C=C(\C)[C@@H](O)[C@@H](OC)C(=O)[C@H](C)C[C@H](C)/C=C/C=C/C=C/1C	523
0.78 (≈ 0.768 µM)	1.56 (≈ 1.54 µM)	Weak	1.56 (≈ 1.54 µM)	~100 (≈ 98.5 µM)	Weak	~100 (≈ 98.5 µM)	1.56 (≈ 1.54 µM)	0.78 (≈ 0.768 µM)	Weak	CCCCOC(=O)N(O)[C@@H]1C[C@@H]2CC[C@@H](C)[C@@](O)(O2)C(=O)C(=O)N2CCCC[C@H]2C(=O)O[C@H]([C@H](C)C[C@@H]2CC[C@@H](O)[C@H](OC)C2)CC(=O)[C@H](C)/C=C(\C)[C@@H](O)[C@@H](OC)C(=O)[C@H](C)C[C@H](C)/C=C/C=C/C=C/1C	83
